We go through two molecules from publication PMC9645260, “Small-molecule inhibitors of P-Rex guanine-nucleotide exchange factors” (Small GTPases, 2022).

pIC50: −log10 of the molar value. Where two headings read alike, the source gives them in different places.

For the experiment, the target named is T1, P-Rex1 DHPH domains (Homo sapiens, UniProt Q8TCU6).
T1 construct: 100 nM EE-P-Rex1 DHPH domains (PREX-in1, compounds 2–10 and 30–128); made in house; host or cells: Sf9 cells (baculovirus)
In words: Liposome-based GEF activity assay, isolated P-Rex1 DHPH domains. The conditions noted are these: for remaining activity at 10 µM: 10 µM compound, 100 nM EE-P-Rex1 DHPH domains, 200 nM prenylated EE-Rac1, PREX-in1, compounds 2-10 and 30-128. It is filed as biochemical. Here is the method:
Full-length N-terminally EE-tagged P-Rex1, P-Rex2, the P-Rex1 DH and DHPH domains and the P-Rex2 DH domain were produced in Sf9 cells using baculoviral transduction and were purified using anti-EE beads, as previously described. Briefly, frozen pellets from 500 ml of Sf9 culture infected with P-Rex expressing high-titre baculovirus were resuspended in ice-cold lysis Sf9-cell lysis buffer 2 (1x PBS, 1% Triton X-100, 5 mM EGTA, 1 mM EDTA, 25 mM NaF, 20 mM β-glycerophosphate, 1 mM DTT, 100 µM PMSF, 10 μg/ml each of leupeptin, pepstatin A, aprotinin and antipain) for 5 min and then ultracentrifuged at 118,000 × g for 1 h at 4°C. Supernatants were incubated with pre-washed anti-EE beads for 90 min on ice with end-over-end rotation. Beads were washed 4 times in wash buffer (2x PBS, 0.1% Triton X-100, 1 mM EGTA) and 5 times in elution buffer (1x PBS, 10% glycerol, 1 mM DTT, 1 mM EGTA, 0.01% Na azide), and protein was eluted by incubation with elution buffer containing Ac-EEYMPME peptide as described above. Protein was concentrated in a YM-100 Centricon (Millipore) at 5000 × g at 4°C. Fatty acid-free BSA and glycerol were added to final concentrations of 2 mg/ml and 50%, respectively. Protein concentration and purity were determined by coomassie staining of SDS-PAGE gels. Full-length Tiam1, expressed in and purified from Sf9 cells, was a kind gift from Angeliki Malliri, CRUK Manchester Institute, UK. The ITSN1 DHPH domains and Ect2 DHPH domains, produced in and purified from bacteria, were a kind gift from Kent Rossman, University of North Carolina, Chapel Hill, USA. The DOCK10 DHR2 domain, produced in and purified from bacteria, was a kind gift from Danni Fan, Institute of Cancer Research, London, UK. All small GTPase and GEF proteins were stored in aliquots at −80°C and were snap-frozen in liquid N2 after each use.
Liposome-based GEF activity assays were carried out essentially as described, except that GEFs were incubated with inhibitor compounds prior to the assay. GEFs (full-length P-Rex1, P-Rex2, and Tiam1, P-Rex1 DH and DHPH domains, P-Rex2 DH domain, ITSN1 DHPH domains, ECT2 DHPH domains or DOCK10 DHR2 domain) were diluted in 20 mM HEPES (pH 7.0 at 4°C), 200 mM KCl, 10% ethylene glycerol, 1% betaine, 500 µM EGTA, 0.01% azide. […] The final 10 µl samples contained GTPase, GEF and inhibitor at concentrations as stated, in 20 mM HEPES pH 7.5, 100 mM NaCl, 1 mM MgCl2, 1 mM EGTA, 1 mM DTT, 10 mg/ml fatty acid-free BSA, liposomes consisting of phosphatidylcholine, -serine and -inositol (200 µM each), with or without 10 µM PIP3, 1 µM GTPγS and 80 nM (1 µCi) ^35S-GTPγS. Positive controls contained additionally 2 mM EDTA to induce maximal GTP-loading of the GTPase. Samples were incubated at 30°C for 10 min, and reactions were stopped by the addition of 400 µl ice-cold wash buffer (1x PBS, 1 mM EGTA, 10 mM MgCl2, 1% Triton X-100, 100 µM GTP). Small GTPases were isolated using anti-EE antibody-coupled Sepharose beads or glutathione Sepharose beads, as appropriate, by incubation on ice for 90 min with end-over-end rotation, four washes in ice-cold wash buffer and resuspension of beads in Ultima Gold scintillation fluid (Perkin Elmer). ^35S-GTPγS incorporation was assessed by scintillation counting (Packard 1600TR, Liquid Scintillation Analyser).

T1 sequence (Q8TCU6 49-392 limits assumed): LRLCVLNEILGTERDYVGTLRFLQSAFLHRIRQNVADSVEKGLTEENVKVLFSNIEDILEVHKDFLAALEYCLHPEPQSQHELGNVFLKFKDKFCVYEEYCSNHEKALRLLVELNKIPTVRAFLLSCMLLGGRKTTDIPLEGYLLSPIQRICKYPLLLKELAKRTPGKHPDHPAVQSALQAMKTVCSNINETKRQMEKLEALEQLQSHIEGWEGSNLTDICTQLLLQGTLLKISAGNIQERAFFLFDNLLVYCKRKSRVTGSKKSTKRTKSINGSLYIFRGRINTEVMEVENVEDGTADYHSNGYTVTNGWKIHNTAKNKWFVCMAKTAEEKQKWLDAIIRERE

As a reminder, the remaining activity is what remains of the control signal, in per cent. A high value points to much activity left. Broadly, the inhibition is how much of the control response was suppressed. What is called pIC50 is the IC50 on a negative log10 scale, so that one unit is a factor of ten. On to `COc1ccc(-c2[nH]nc3c2C(c2ccc(-c4ccc(Cl)cc4)o2)C(C#N)=C(N)O3)cc1` (centres unmarked) [PREX-in1, 6-amino-4-[5-(4-chlorophenyl)-2-furyl]-3-(4-methoxyphenyl)-2,4-dihydropyrano[2,3-c]pyrazole-5-carbonitrile], for which the remaining activity at 10 µM was found to be 3%. The inhibition at 10 µM (100 nM DHPH domains, without PIP3, read-out: inhibition of constitutive Rac-GEF activity of isolated P-Rex1 DHPH domains) is 100%. The inhibition at 10 µM (Rho-GEF selectivity panel, 200 nM GTPase, read-out: inhibition of P-Rex1 DHPH Rac-GEF activity) is over 90%. Besides, the pIC50 (liposome-based GEF assay, 200 nM prenylated EE-Rac2 as substrate, read-out: IC50 of inhibition of P-Rex1 DHPH Rac-GEF activity) is 5.35.

In turn, `CC1CCC(C(C)C)c2nn(C(=O)/C=C\c3ccccc3)c(-c3cccc4ccccc34)c21` (centres unmarked) [#10] displayed a remaining activity at 10 µM of 28%.
